Measurements as given in ChEMBL document CHEMBL1201862, “PubChem BioAssay data set” (2004).
Where “and” joins values, the source holds several entries; their conditions need not be identical. Identical values can stand only once.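 In this assay, cells in 96-well plates receive the compound at five concentrations for 48 hours. Endpoints are linearly interpolated between the surrounding concentrations. GI50 marks 50% less growth.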 Calls of active or inactive are those of the source. No stated cut-off is given here; in the data, active = GI50 up to about 1.1 µM and inactive = higher.

Columns and labels:
Experiment in all cases: NCI tumour cell line growth inhibition, 48 h
NCI-H460 = system: NCI-H460
T47D = system: T47D
RXF 393 = system: RXF 393
SNB-75 = system: SNB-75
SF-539 = system: SF-539
HL-60 = system: HL-60
SN12C = system: SN12C
UO-31 = system: UO-31
OVCAR-3 = system: OVCAR-3
BT-549 = system: BT-549
SK-MEL-5 = system: SK-MEL-5
RPMI-8226 = system: RPMI-8226
DU-145 = system: DU-145
SF-295 = system: SF-295
MDA-MB-435 = system: MDA-MB-435
NCI-H23 = system: NCI-H23
PC-3 = system: PC-3
MDA-MB-231 = system: MDA-MB-231
ACHN = system: ACHN
EKVX = system: EKVX
MDA-N = system: MDA-N
SW-620 = system: SW-620
CCRF-CEM = system: CCRF-CEM
KM12 = system: KM12
OVCAR-5 = system: OVCAR-5
OVCAR-4 = system: OVCAR-4
SK-MEL-28 = system: SK-MEL-28
HCC 2998 = system: HCC 2998
NCI-H522 = system: NCI-H522
M14 = system: M14
MOLT-4 = system: MOLT-4
786-0 = system: 786-0
SF-268 = system: SF-268
K562 = system: K562
SK-OV-3 = system: SK-OV-3
TK-10 = system: TK-10
U-251 = system: U-251
OVCAR-8 = system: OVCAR-8
SR = system: SR
IGROV-1 = system: IGROV-1
UACC-257 = system: UACC-257
A549 = system: A549
NCI/ADR-RES = system: NCI/ADR-RES
Malme-3M = system: Malme-3M
HCT-116 = system: HCT-116
HOP-62 = system: HOP-62
HT-29 = system: HT-29
NCI-H226 = system: NCI-H226
SK-MEL-2 = system: SK-MEL-2
SNB-19 = system: SNB-19
LOX IMVI = system: LOX IMVI
HCT-15 = system: HCT-15
CAKI-1 = system: CAKI-1
MCF7 = system: MCF7
HOP-92 = system: HOP-92
COLO 205 = system: COLO 205
UACC-62 = system: UACC-62
A498 = system: A498

Measured: GI50

Cc1cc(C)nc(NS(=O)(=O)c2ccc(NNc3c4ccccc4nc4c(C(=O)Nc5ccc(S(=O)(=O)N=C(N)N)cc5)cccc34)cc2)n1
inactive: NCI-H460 47.4 µM | T47D 25.8 µM | RXF 393 > 100 µM | SNB-75 28.4 µM | SF-539 67 µM | HL-60 37.5 µM | SN12C 64.1 µM | UO-31 27.7 µM | OVCAR-3 31.8 µM | BT-549 56 µM | SK-MEL-5 53.1 µM | RPMI-8226 93.3 µM | DU-145 65.8 µM | SF-295 77.3 µM | MDA-MB-435 39.1 µM | NCI-H23 55.8 µM | PC-3 31.6 µM | MDA-MB-231 49.1 µM | ACHN 45 µM | EKVX 30.5 µM | MDA-N 49.5 µM | SW-620 71.6 µM | CCRF-CEM 34.6 µM | KM12 34.7 µM | OVCAR-5 25.1 µM | OVCAR-4 65.2 µM | SK-MEL-28 17.6 µM | HCC 2998 39.3 µM | NCI-H522 36.6 µM | M14 97.9 µM | MOLT-4 34.9 µM | 786-0 65.5 µM | SF-268 45 µM | K562 31.4 µM | SK-OV-3 24.8 µM | TK-10 > 100 µM | U-251 25.4 µM | OVCAR-8 52.4 µM | SR 27.5 µM | IGROV-1 53 µM | UACC-257 > 100 µM | A549 > 100 µM | NCI/ADR-RES > 100 µM | Malme-3M 76 µM | HCT-116 48 µM | HOP-62 > 100 µM | HT-29 26.6 µM | NCI-H226 49.7 µM | SK-MEL-2 3.64 µM | SNB-19 61.1 µM | LOX IMVI 33.7 µM | CAKI-1 > 100 µM | MCF7 76 µM | HOP-92 35.6 µM | COLO 205 36.1 µM
63.4 µM: HCT-15

O=C(O)Cc1c[nH]c2ccc(F)cc12
> 100 µM: HCT-15
inactive: NCI-H460 > 100 µM | T47D > 100 µM | RXF 393 > 100 µM | SNB-75 > 100 µM | SF-539 > 100 µM | HL-60 > 100 µM | SN12C > 100 µM | UO-31 > 100 µM | OVCAR-3 > 100 µM | BT-549 > 100 µM | SK-MEL-5 > 100 µM | RPMI-8226 > 100 µM | DU-145 > 100 µM | SF-295 > 100 µM | MDA-MB-435 > 100 µM | NCI-H23 > 100 µM | PC-3 > 100 µM | MDA-MB-231 > 100 µM | ACHN > 100 µM | UACC-62 > 100 µM | EKVX > 100 µM | MDA-N > 100 µM | A498 > 100 µM | SW-620 > 100 µM | CCRF-CEM > 100 µM | KM12 > 100 µM | OVCAR-5 > 100 µM | OVCAR-4 > 100 µM | SK-MEL-28 > 100 µM | HCC 2998 > 100 µM | M14 > 100 µM | MOLT-4 > 100 µM | 786-0 > 100 µM | K562 > 100 µM | SK-OV-3 > 100 µM | TK-10 > 100 µM | U-251 > 100 µM | OVCAR-8 > 100 µM | SR > 100 µM | IGROV-1 > 100 µM | UACC-257 > 100 µM | A549 > 100 µM | NCI/ADR-RES > 100 µM | HCT-116 > 100 µM | HOP-62 > 100 µM | HT-29 > 100 µM | NCI-H226 > 100 µM | SK-MEL-2 > 100 µM | SNB-19 > 100 µM | LOX IMVI > 100 µM | CAKI-1 > 100 µM | MCF7 > 100 µM | HOP-92 > 100 µM | COLO 205 > 100 µM

O=C1NCC(NC(=O)C(F)(F)F)c2c(Br)sc(Br)c21 (stereo not drawn)
> 100 µM: HCT-15
inactive: NCI-H460 > 100 µM | T47D > 100 µM | RXF 393 > 100 µM | SNB-75 24.3 µM | SF-539 > 100 µM | SN12C > 100 µM | UO-31 > 100 µM | OVCAR-3 > 100 µM | BT-549 > 100 µM | SK-MEL-5 > 100 µM | RPMI-8226 > 100 µM | DU-145 > 100 µM | SF-295 > 100 µM | MDA-MB-435 > 100 µM | NCI-H23 > 100 µM | PC-3 > 100 µM | MDA-MB-231 > 100 µM | ACHN > 100 µM | UACC-62 > 100 µM | EKVX > 100 µM | MDA-N > 100 µM | A498 > 100 µM | SW-620 > 100 µM | CCRF-CEM > 100 µM | KM12 > 100 µM | OVCAR-5 > 100 µM | OVCAR-4 > 100 µM | SK-MEL-28 > 100 µM | HCC 2998 > 100 µM | NCI-H522 > 100 µM | M14 > 100 µM | MOLT-4 > 100 µM | 786-0 > 100 µM | SF-268 > 100 µM | K562 > 100 µM | SK-OV-3 > 100 µM | TK-10 > 100 µM | U-251 > 100 µM | OVCAR-8 > 100 µM | SR > 100 µM | IGROV-1 > 100 µM | UACC-257 > 100 µM | A549 > 100 µM | NCI/ADR-RES > 100 µM | Malme-3M > 100 µM | HCT-116 > 100 µM | HOP-62 > 100 µM | HT-29 > 100 µM | NCI-H226 > 100 µM | SK-MEL-2 > 100 µM | SNB-19 > 100 µM | LOX IMVI > 100 µM | CAKI-1 > 100 µM | MCF7 > 100 µM | HOP-92 > 100 µM | COLO 205 > 100 µM

C#CC1(O)C(COP(=O)(O)OC(COCCCCCCCCCCCCCCCCCC)COP(=O)(O)OCC2OC(n3cc(F)c(=O)[nH]c3=O)CC2O)OC(n2ccc(N)nc2=O)C1O (stereo not drawn)
active: NCI-H460 < 21.3 nM and < 13.9 nM | SF-539 < 21.3 nM and < 23.3 nM | SN12C 0.0818 µM | BT-549 752 nM and 466 nM | SK-MEL-5 621 nM and 467 nM | RPMI-8226 26.2 nM and < 16.3 nM | MDA-MB-435 514 nM and 376 nM | MDA-MB-231 1.1 µM and 731 nM | ACHN < 36.1 nM and 59.2 nM | UACC-62 546 nM and 277 nM | MDA-N 418 nM and 293 nM | SW-620 114 nM and 91.8 nM | KM12 454 nM and 252 nM | SF-268 < 27.2 nM and 48.8 nM | K562 < 31.3 nM and 27.5 nM | TK-10 200 nM and 124 nM | SR < 13.8 nM and < 15.7 nM | A549 < 28.8 nM and 29.7 nM | NCI/ADR-RES 209 nM and 265 nM | HOP-62 434 nM and 399 nM | HT-29 361 nM and 313 nM | NCI-H226 471 nM and 299 nM | SNB-19 152 nM and 277 nM | CAKI-1 48.5 nM and 54.8 nM | MCF7 < 24.7 nM and < 18.3 nM | COLO 205 244 nM and 211 nM
1.04 µM (active) and 1.93 µM (inactive): OVCAR-3
inactive: HCC 2998 1.26 µM | SK-OV-3 1.32 µM and 2.43 µM | UACC-257 1.15 µM and 1.92 µM
